Laboratory results as given in ChEMBL document CHEMBL1201862, “PubChem BioAssay data set” (2004).
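Results reflect a 48-hour exposure of cells in 96-well plates to compound at five concentrations. Here, GI50 denotes the concentration required for 50% inhibition of growth.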 Active and inactive are the calls of the source. Rule as the data show it: active = GI50 up to about 1.1 µM and inactive = higher.

Columns and labels:
Experiment in all cases: NCI-60 cell line screen, 48 h
SF-268 = test system: SF-268
SF-295 = test system: SF-295
SF-539 = test system: SF-539
Hs-578T = test system: Hs-578T
TK-10 = test system: TK-10
HOP-62 = test system: HOP-62
KM12 = test system: KM12
IGROV-1 = test system: IGROV-1
OVCAR-3 = test system: OVCAR-3
HCT-116 = test system: HCT-116
MDA-MB-231 = test system: MDA-MB-231
UACC-257 = test system: UACC-257
U-251 = test system: U-251
UACC-62 = test system: UACC-62

SMILES	GI50 (SF-268)	GI50 (SF-295)	GI50 (SF-539)	GI50 (Hs-578T)	GI50 (TK-10)	GI50 (HOP-62)	GI50 (KM12)	GI50 (IGROV-1)	GI50 (OVCAR-3)	GI50 (HCT-116)	GI50 (MDA-MB-231)	GI50 (UACC-257)	GI50 (U-251)	GI50 (UACC-62)
Cc1ccc(/C=N/n2c(Cc3ccccc3)n[nH]c2=O)cc1	> 100 µM (inactive)	35.9 µM (inactive)	> 100 µM (inactive)	65.2 µM (inactive)	> 100 µM (inactive)	37.2 µM (inactive)	> 100 µM (inactive)	> 100 µM (inactive)	> 100 µM (inactive)	> 100 µM (inactive)	> 100 µM (inactive)	> 100 µM (inactive)		
CCc1cc(Cc2cc(CC)c(NC(=O)C(=O)CC(=O)c3sc(-c4cccnc4)nc3C)c(CC)c2)cc(CC)c1NC(=O)C(=O)CC(=O)c1sc(-c2cccnc2)nc1C	> 100 µM (inactive)	54.3 µM (inactive)	> 100 µM (inactive)	> 100 µM (inactive)			> 100 µM (inactive)	> 100 µM (inactive)	> 100 µM (inactive)	> 100 µM (inactive)	> 100 µM (inactive)	> 100 µM (inactive)	> 100 µM (inactive)	> 100 µM (inactive)
O=C1CC(C(COCc2ccccc2)OCc2ccccc2)CC(=O)N1 (stereo unspecified)	> 100 µM (inactive)	> 100 µM (inactive)	> 100 µM (inactive)	> 100 µM (inactive)	> 100 µM (inactive)	> 100 µM (inactive)	> 100 µM (inactive)	> 100 µM (inactive)	> 100 µM (inactive)	> 100 µM (inactive)	> 100 µM (inactive)	> 100 µM (inactive)	> 100 µM (inactive)	
Cc1ccc(/C=C/C(=O)c2cc(CN(C)C)c(O)c(CN(C)C)c2)cc1	25.9 µM (inactive)	13.8 µM (inactive)	16.6 µM (inactive)	29.8 µM (inactive)	28.8 µM (inactive)	16.5 µM (inactive)	12.1 µM (inactive)	27.4 µM (inactive)	14.6 µM (inactive)	15.5 µM (inactive)	13.8 µM (inactive)	13.8 µM (inactive)	21.9 µM (inactive)	
COc1cc(C2c3cc4c(cc3[C@@H](Nc3ccc(F)cc3)C3COC[C@H]23)OCO4)cc(OC)c1O (stereo partly specified)	3.85 µM (inactive)	0.877 µM (active)	0.75 µM (active)	0.589 µM (active)	5.9 µM (inactive)	2.45 µM (inactive)	4.66 µM (inactive)	11.9 µM (inactive)		2.07 µM (inactive)	2.74 µM (inactive)	7.82 µM (inactive)	0.811 µM (active)	
CC12C(=O)OC(=O)C1(C)C1C=CC2O1 (stereo unspecified)	59.7 µM (inactive)	62.8 µM (inactive)	> 100 µM (inactive)	29.1 µM (inactive)	78.7 µM (inactive)		> 100 µM (inactive)	> 100 µM (inactive)	30.3 µM (inactive)	> 100 µM (inactive)	42.6 µM (inactive)	> 100 µM (inactive)	> 100 µM (inactive)	> 100 µM (inactive)
O=c1oc2ccc([N+](=O)[O-])cc2cc1-c1csc(-c2ccccc2)n1	> 100 µM (inactive)	> 100 µM (inactive)	> 100 µM (inactive)	> 100 µM (inactive)	> 100 µM (inactive)	> 100 µM (inactive)	> 100 µM (inactive)	> 100 µM (inactive)		> 100 µM (inactive)	> 100 µM (inactive)	> 100 µM (inactive)	> 100 µM (inactive)	> 100 µM (inactive)
CC1(C)CCSC(/C=C/c2ccccc2)=N1	30.8 µM (inactive)	19.9 µM (inactive)	19.8 µM (inactive)	43.4 µM (inactive)	18.2 µM (inactive)	16.4 µM (inactive)	12 µM (inactive)	20.6 µM (inactive)	15.2 µM (inactive)	13.6 µM (inactive)	15.7 µM (inactive)	13 µM (inactive)	17.9 µM (inactive)	
